Reference: PubChem BioAssay AID248 (DTP/NCI, 2004)
Where “and” joins values, the source holds several entries; their conditions need not be identical. Equal entries are not always repeated. Inconclusive results and toxic doses are left out. Cut-off read from the data, not from the text of the source: active = T/C of 150% or more; inactive = T/C below 125%. Square brackets hold non-standard residues; d marks the D form. Peptide text beside a SMILES is read from it. * marks the point of attachment. ξ: configuration not given here. Pentanoyl = CCCCC(=O)*; ξP = O=C(O)C1CCCN1; Ava = NCCCCC(=O)O

Test system: L1210 leukemia ip in BDF1 mice, survival T/C
Experiment: NCI In Vivo Anticancer Drug Screen. Data for tumor model L1210 Leukemia (intraperitoneal) in B6D2F1 (BDF1) mice
Conditions: endpoint: mean survival time, higher = longer survival
Outline: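 Antitumor effect is assessed in tumor-bearing animals. Survival in the compound arm is compared with a vehicle-dosed control arm and expressed as their quotient.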

[1] = dose: 100.0 mg/kg/injection, schedule: Q01DX001 (ip), vehicle: Klucel (hydroxypropylcellulose) (HPC)
[2] = dose: 200.0 mg/kg/injection, schedule: Q01DX001 (ip), vehicle: Klucel (hydroxypropylcellulose) (HPC)
[3] = dose: 400.0 mg/kg/injection, schedule: Q01DX001 (ip), vehicle: Klucel (hydroxypropylcellulose) (HPC)
[4] = dose: 100.0 mg/kg/injection, schedule: Q04DX003 (ip), vehicle: Klucel (hydroxypropylcellulose) (HPC)
[5] = dose: 100.0 mg/kg/injection, schedule: Q01DX001 (ip), vehicle: saline
[6] = dose: 200.0 mg/kg/injection, schedule: Q01DX001 (ip), vehicle: saline

Measured: T/C

Oc1ccc2ccccc2c1/C=N\Nc1ccccn1
inactive: dose: 100.0 mg/kg/injection, schedule: Q04DX002 (ip), vehicle: saline with Tween-80 92 % of control | dose: 200.0 mg/kg/injection, schedule: Q04DX002 (ip), vehicle: saline with Tween-80 92 % of control | dose: 400.0 mg/kg/injection, schedule: Q04DX002 (ip), vehicle: saline with Tween-80 89 % of control

CCOC(=O)Nc1nccs1
inactive: dose: 100.0 mg/kg/injection, schedule: Q04DX003 (ip), vehicle: saline with Tween-80 105 % of control | dose: 200.0 mg/kg/injection, schedule: Q04DX003 (ip), vehicle: saline with Tween-80 96 % of control

CCCCCCC(=O)N(CC(C)C)CC(C)C
inactive: dose: 100.0 mg/kg/injection, schedule: Q01DX001 (ip), vehicle: carboxymethylcellulose (CMC) 102 % of control | dose: 100.0 mg/kg/injection, schedule: Q01DX009 (ip), vehicle: carboxymethylcellulose (CMC) 93 % of control and 106 % of control | dose: 100.0 mg/kg/injection, schedule: Q04DX002 (ip), vehicle: carboxymethylcellulose (CMC) 97 % of control | dose: 100.0 mg/kg/injection, schedule: Q04DX003 (ip), vehicle: carboxymethylcellulose (CMC) 109 % of control | dose: 200.0 mg/kg/injection, schedule: Q01DX001 (ip), vehicle: carboxymethylcellulose (CMC) 100 % of control | dose: 200.0 mg/kg/injection, schedule: Q01DX009 (ip), vehicle: carboxymethylcellulose (CMC) 104 % of control and 90 % of control | dose: 200.0 mg/kg/injection, schedule: Q04DX002 (ip), vehicle: carboxymethylcellulose (CMC) 102 % of control | dose: 200.0 mg/kg/injection, schedule: Q04DX003 (ip), vehicle: carboxymethylcellulose (CMC) 102 % of control | dose: 400.0 mg/kg/injection, schedule: Q01DX001 (ip), vehicle: carboxymethylcellulose (CMC) 90 % of control | dose: 400.0 mg/kg/injection, schedule: Q04DX002 (ip), vehicle: carboxymethylcellulose (CMC) 100 % of control | dose: 400.0 mg/kg/injection, schedule: Q04DX003 (ip), vehicle: carboxymethylcellulose (CMC) 100 % of control

Nc1c2ccccc2cc2cccc[n+]12
inactive: dose: 9.38 mg/kg/injection, schedule: Q01DX001 (ip), vehicle: other 101 % of control and 100 % of control | dose: 18.75 mg/kg/injection, schedule: Q01DX001 (ip), vehicle: other 97 % of control and 99 % of control

CC1(C)C/C(=C\c2cccc([N+](=O)[O-])c2)C(=O)c2ccccc21
inactive: [1] 94 % of control | [2] 93 % of control | [3] 94 % of control

CC(=O)Nc1ccc(/C=N\NC(=O)N/N=C/c2ccc(NC(C)=O)cc2)cc1
inactive: dose: 50.0 mg/kg/injection, schedule: Q04DX003 (ip), vehicle: Klucel (hydroxypropylcellulose) (HPC) 90 % of control | [4] 91 % of control

Cc1ccc2[nH]c(=S)[nH]c2c1
inactive: dose: 100.0 mg/kg/injection, schedule: Q01DX001 (ip), vehicle: saline with Tween-80 101 % of control | dose: 200.0 mg/kg/injection, schedule: Q01DX001 (ip), vehicle: saline with Tween-80 106 % of control

CCCCC(=O)NCC(=O)N1CCCC1C(=O)NCCCCC(=O)OC (centres undefined) (Pentanoyl-Gly-[ξP]-[Ava]-OMe)
inactive: [5] 98 % of control | [6] 95 % of control | dose: 400.0 mg/kg/injection, schedule: Q01DX001 (ip), vehicle: saline 95 % of control

c1ccc2c(c1)[nH]c1c[n+]3c(c[n+]12)[nH]c1ccccc13
inactive: dose: 50.0 mg/kg/injection, schedule: Q01DX001 (ip), vehicle: saline 107 % of control | [5] 98 % of control | [6] 113 % of control

CCOc1ccc(N=Nc2c(O)n(-c3ccccc3)c(=S)n(-c3ccccc3)c2=O)cc1
inactive: [1] 96 % of control | [2] 107 % of control | [3] 100 % of control

Clc1ccc(Cl)c(/C=C/c2ccc(Cl)c(Cl)c2)c1
inactive: dose: 1.56 mg/kg/injection, schedule: Q01DX009 (ip), vehicle: Klucel (hydroxypropylcellulose) (HPC) 97 % of control | dose: 3.12 mg/kg/injection, schedule: Q01DX009 (ip), vehicle: Klucel (hydroxypropylcellulose) (HPC) 95 % of control | dose: 6.25 mg/kg/injection, schedule: Q01DX009 (ip), vehicle: Klucel (hydroxypropylcellulose) (HPC) 92 % of control and 100 % of control | [4] 97 % of control

CC1CCN(c2ccc([N+](=O)[O-])cc2)CC1
inactive: dose: 100.0 mg/kg/injection, schedule: Q01DX009 (ip), vehicle: Klucel (hydroxypropylcellulose) (HPC) 100 % of control | [4] 97 % of control | dose: 200.0 mg/kg/injection, schedule: Q01DX009 (ip), vehicle: Klucel (hydroxypropylcellulose) (HPC) 99 % of control | dose: 200.0 mg/kg/injection, schedule: Q04DX003 (ip), vehicle: Klucel (hydroxypropylcellulose) (HPC) 95 % of control | dose: 400.0 mg/kg/injection, schedule: Q01DX009 (ip), vehicle: Klucel (hydroxypropylcellulose) (HPC) 100 % of control | dose: 400.0 mg/kg/injection, schedule: Q04DX003 (ip), vehicle: Klucel (hydroxypropylcellulose) (HPC) 101 % of control
